From PubChem BioAssay (NCI)
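All cell lines were grown in 96-well plates and treated with compound for 48 hours. TGI denotes the concentration required for complete inhibition of growth.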

What was measured:
Assay in all cases: inhibition of tumour cell growth, NCI panel, 48 h
[1] = system: MALME-3M melanoma
[2] = system: NCI-H460 lung
[3] = system: M14 melanoma
[4] = system: MDA-N
[5] = system: T-47D breast
[6] = system: OVCAR-8 ovarian
[7] = system: HOP-92 NSCLC
[8] = system: KM12 colon
[9] = system: CCRF-CEM leukemia
[10] = system: RPMI-8226 leukemia
[11] = system: MDA-MB-435
[12] = system: HCT-116 colon
[13] = system: SF-539 CNS
[14] = system: MCF7 breast
[15] = system: SNB-19 CNS
[16] = system: SK-MEL-28 melanoma
[17] = system: SK-MEL-5 melanoma
[18] = system: HCT-15 colon
[19] = system: SK-OV-3 ovarian
[20] = system: NCI-H226 lung
[21] = system: MOLT-4 leukemia
[22] = system: COLO 205 colon
[23] = system: NCI-H522 lung
[24] = system: NCI/ADR-RES ovarian
[25] = system: SW-620 colon
[26] = system: OVCAR-5 ovarian
[27] = system: CAKI-1 renal
[28] = system: TK-10 renal
[29] = system: A498 renal
[30] = system: UACC-62 melanoma
[31] = system: PC-3 prostate
[32] = system: IGROV1 ovarian
[33] = system: SF-268 CNS
[34] = system: HS 578T breast
[35] = system: SNB-75 CNS
[36] = system: DU-145 prostate
[37] = system: UO-31 renal
[38] = system: UACC-257 melanoma
[39] = system: K-562 leukemia
[40] = system: SK-MEL-2 melanoma
[41] = system: U251 CNS
[42] = system: EKVX NSCLC
[43] = system: MDA-MB-231 breast
[44] = system: SN12C renal
[45] = system: 786-0 renal
[46] = system: OVCAR-4 ovarian
[47] = system: LOX IMVI melanoma
[48] = system: HL-60(TB) leukemia
[49] = system: SF-295 CNS
[50] = system: HT29 colon
[51] = system: ACHN renal
[52] = system: HOP-62 NSCLC
[53] = system: BT-549 breast
[54] = system: RXF 393 renal
[55] = system: OVCAR-3 ovarian
[56] = system: A549 NSCLC
[57] = system: SR leukemia
[58] = system: NCI-H23 lung
[59] = system: HCC-2998 colon

SMILES: O=C(O)C(C1NCCS1)N1C(=O)c2ccccc2C1=O (stereo not drawn)
- TGI [1]: > 100 µM
- TGI [2]: > 100 µM
- TGI [3]: > 100 µM
- TGI [4]: > 100 µM
- TGI [5]: > 100 µM
- TGI [6]: > 100 µM
- TGI [7]: > 100 µM
- TGI [8]: > 100 µM
- TGI [9]: > 100 µM
- TGI [10]: > 100 µM
- TGI [11]: > 100 µM
- TGI [12]: > 100 µM
- TGI [13]: > 100 µM
- TGI [14]: > 100 µM
- TGI [15]: > 100 µM
- TGI [16]: > 100 µM
- TGI [17]: > 100 µM
- TGI [18]: > 100 µM
- TGI [19]: > 100 µM
- TGI [20]: > 100 µM
- TGI [21]: > 100 µM
- TGI [22]: > 100 µM
- TGI [23]: > 100 µM
- TGI [24]: > 100 µM
- TGI [25]: > 100 µM
- TGI [26]: > 100 µM
- TGI [27]: > 100 µM
- TGI [28]: > 100 µM
- TGI [29]: > 100 µM
- TGI [30]: > 100 µM
- TGI [31]: > 100 µM
- TGI [32]: > 100 µM
- TGI [33]: > 100 µM
- TGI [34]: > 100 µM
- TGI [35]: > 100 µM
- TGI [36]: > 100 µM
- TGI [37]: > 100 µM
- TGI [38]: > 100 µM
- TGI [39]: > 100 µM
- TGI [40]: > 100 µM
- TGI [41]: > 100 µM
- TGI [42]: > 100 µM
- TGI [43]: > 100 µM
- TGI [44]: > 100 µM
- TGI [45]: > 100 µM
- TGI [46]: > 100 µM
- TGI [47]: > 100 µM
- TGI [48]: > 100 µM
- TGI [49]: > 100 µM
- TGI [50]: > 100 µM
- TGI [51]: > 100 µM
- TGI [52]: > 100 µM
- TGI [53]: > 100 µM
- TGI [54]: > 100 µM
- TGI [55]: > 100 µM
- TGI [56]: > 100 µM
- TGI [57]: > 100 µM
- TGI [58]: > 100 µM

SMILES: Cc1ccccc1-n1c(=O)nc2n(-c3ccc(C(C)(C)C)cc3)c3ccccc3cc-2c1=O
- TGI [2]: 28.7 µM
- TGI [3]: 32.4 µM
- TGI [4]: 82.4 µM
- TGI [5]: > 100 µM
- TGI [6]: 42.9 µM
- TGI [7]: 50.1 µM
- TGI [8]: 29.8 µM
- TGI [9]: 50.5 µM
- TGI [10]: 52.9 µM
- TGI [11]: 27.9 µM
- TGI [12]: 28.8 µM
- TGI [13]: 36 µM
- TGI [14]: 59.9 µM
- TGI [15]: 54.4 µM
- TGI [16]: 28.7 µM
- TGI [17]: 28.5 µM
- TGI [18]: 32.8 µM
- TGI [20]: 38.2 µM
- TGI [21]: 55.1 µM
- TGI [22]: 41.6 µM
- TGI [23]: 47.6 µM
- TGI [24]: 40.6 µM
- TGI [25]: 33.5 µM
- TGI [26]: 63.6 µM
- TGI [27]: 71.4 µM
- TGI [28]: > 100 µM
- TGI [29]: 86.6 µM
- TGI [30]: 41 µM
- TGI [31]: 45.6 µM
- TGI [32]: 64.5 µM
- TGI [33]: 83.2 µM
- TGI [34]: 79.7 µM
- TGI [35]: 66.3 µM
- TGI [36]: 77.1 µM
- TGI [37]: 95.1 µM
- TGI [38]: 37.1 µM
- TGI [39]: > 100 µM
- TGI [40]: 34.8 µM
- TGI [41]: 28.3 µM
- TGI [42]: 64.6 µM
- TGI [59]: 32.4 µM
- TGI [43]: 42.9 µM
- TGI [44]: 38.1 µM
- TGI [45]: 69.9 µM
- TGI [46]: 92.5 µM
- TGI [47]: 30.3 µM
- TGI [48]: 43.2 µM
- TGI [49]: 53.1 µM
- TGI [50]: 34.6 µM
- TGI [51]: > 100 µM
- TGI [52]: 39.7 µM
- TGI [53]: 69.6 µM
- TGI [54]: 39 µM
- TGI [55]: 40.9 µM
- TGI [56]: > 100 µM
- TGI [57]: 59.7 µM
- TGI [58]: 58.2 µM

SMILES: Cc1ccc2c(n1)C(=O)c1cc(C)c(C)cc1C2=O
- TGI [1]: > 100 µM
- TGI [2]: > 100 µM
- TGI [3]: > 100 µM
- TGI [4]: > 100 µM
- TGI [5]: > 100 µM
- TGI [6]: > 100 µM
- TGI [7]: > 100 µM
- TGI [8]: > 100 µM
- TGI [9]: > 100 µM
- TGI [10]: > 100 µM
- TGI [11]: > 100 µM
- TGI [12]: > 100 µM
- TGI [13]: > 100 µM
- TGI [14]: > 100 µM
- TGI [15]: > 100 µM
- TGI [16]: > 100 µM
- TGI [17]: 79.1 µM
- TGI [18]: > 100 µM
- TGI [19]: > 100 µM
- TGI [20]: > 100 µM
- TGI [21]: > 100 µM
- TGI [22]: > 100 µM
- TGI [23]: 56.8 µM
- TGI [24]: > 100 µM
- TGI [25]: > 100 µM
- TGI [26]: > 100 µM
- TGI [27]: > 100 µM
- TGI [28]: > 100 µM
- TGI [29]: > 100 µM
- TGI [30]: > 100 µM
- TGI [31]: > 100 µM
- TGI [32]: > 100 µM
- TGI [33]: > 100 µM
- TGI [34]: > 100 µM
- TGI [35]: 73 µM
- TGI [36]: > 100 µM
- TGI [37]: > 100 µM
- TGI [38]: > 100 µM
- TGI [39]: > 100 µM
- TGI [40]: > 100 µM
- TGI [41]: > 100 µM
- TGI [42]: > 100 µM
- TGI [59]: > 100 µM
- TGI [43]: > 100 µM
- TGI [44]: > 100 µM
- TGI [45]: > 100 µM
- TGI [46]: > 100 µM
- TGI [47]: > 100 µM
- TGI [48]: > 100 µM
- TGI [49]: > 100 µM
- TGI [50]: > 100 µM
- TGI [51]: > 100 µM
- TGI [52]: > 100 µM
- TGI [53]: > 100 µM
- TGI [54]: > 100 µM
- TGI [55]: 67.3 µM
- TGI [56]: > 100 µM
- TGI [57]: 85.1 µM
- TGI [58]: > 100 µM

SMILES: COP(=O)(OC)[C@@](O)(c1ccccc1)[C@@H](O)[C@@H](O)c1ccccc1
- TGI [1]: > 100 µM
- TGI [2]: > 100 µM
- TGI [3]: > 100 µM
- TGI [4]: > 100 µM
- TGI [5]: > 100 µM
- TGI [6]: > 100 µM
- TGI [7]: > 100 µM
- TGI [8]: > 100 µM
- TGI [9]: 50.9 µM
- TGI [11]: > 100 µM
- TGI [12]: > 100 µM
- TGI [13]: > 100 µM
- TGI [14]: 83.8 µM
- TGI [15]: > 100 µM
- TGI [16]: > 100 µM
- TGI [17]: > 100 µM
- TGI [18]: > 100 µM
- TGI [19]: > 100 µM
- TGI [20]: > 100 µM
- TGI [22]: > 100 µM
- TGI [23]: > 100 µM
- TGI [24]: > 100 µM
- TGI [25]: > 100 µM
- TGI [26]: > 100 µM
- TGI [27]: > 100 µM
- TGI [28]: > 100 µM
- TGI [29]: > 100 µM
- TGI [30]: > 100 µM
- TGI [31]: > 100 µM
- TGI [32]: > 100 µM
- TGI [33]: > 100 µM
- TGI [34]: > 100 µM
- TGI [35]: > 100 µM
- TGI [36]: > 100 µM
- TGI [37]: > 100 µM
- TGI [38]: > 100 µM
- TGI [40]: > 100 µM
- TGI [41]: > 100 µM
- TGI [42]: > 100 µM
- TGI [43]: > 100 µM
- TGI [44]: > 100 µM
- TGI [45]: > 100 µM
- TGI [46]: > 100 µM
- TGI [47]: 37.9 µM
- TGI [48]: > 100 µM
- TGI [49]: > 100 µM
- TGI [50]: > 100 µM
- TGI [51]: > 100 µM
- TGI [53]: > 100 µM
- TGI [54]: > 100 µM
- TGI [55]: > 100 µM
- TGI [56]: > 100 µM
- TGI [57]: 1.91 µM
- TGI [58]: > 100 µM
